25 molecules from patent US7790742B2, “Substituted 4-phenyltetrahydroisoquinolines, pharmaceutical compositions thereof, methods for their preparation and therapeutic use” (Sanofi-Aventis Deutschland GmbH, priority 2004, dated 2010) can be followed below.

Usually melting point stands for the temperature, or range, at which the solid turns liquid. Turning to `CN(C)CCNc1c(Nc2cccc(C3CN(C)Cc4c(Cl)cc(Cl)cc43)c2)c(=O)c1=O` (stereo not shown) [Example 65], the melting point lay in the range of 198 to 200 °C.
The figure for `CN1Cc2c(Cl)cc(Cl)cc2C(c2ccc(Nc3c(NC4CCCC4)c(=O)c3=O)cc2)C1` (stereo not shown) [Example 54] is 300 to 304 °C; for `CCNc1c(Nc2ccc(C3CN(C)Cc4c(Cl)cc(Cl)cc43)cc2)c(=O)c1=O` (stereo not shown) [Example 51, 6,8-dichloro-2-methyl-4-[4N-(2-N-ethylamino-3,4-dioxocyclobuten-1-yl)amino]phenyl-1,2,3,4-tetrahydroisoquinoline] it is 292 to 297 °C; for `CN1Cc2c(Cl)cc(Cl)cc2C(c2ccc(Nc3c(Nc4ccccc4)c(=O)c3=O)cc2)C1` (stereo not shown) [Example 43, 6,8-dichloro-2-methyl-4-[4N-(2-N-phenylamino-3,4-dioxocyclobuten-1-yl)amino]phenyl-1,2,3,4-tetrahydroisoquinoline] it is 288 to 294 °C.
The figure for `CNc1c(Nc2ccc(C3CN(C)Cc4c(Cl)cc(Cl)cc43)cc2)c(=O)c1=O` (stereo not shown) [Example 53, 6,8-dichloro-2-methyl-4-[4N-(2N-methylamino-3,4-dioxocyclobuten-1-yl)amino]phenyl-1,2,3,4-tetrahydroisoquinoline] is 328 to 334 °C; for `CN1Cc2c(Cl)cc(Cl)cc2[C@H](c2ccccc2Nc2c(N(C)C)c(=O)c2=O)C1` [Example 21, 6,8-dichloro-2-methyl-4(R)-[2N-(2-dimethylamino-3,4-dioxocyclobuten-1-yl)amino]phenyl-1,2,3,4-tetrahydroisoquinoline] it is 236 to 240 °C; for `CC(C)Nc1c(Nc2ccc(C3CN(C)Cc4c(Cl)cc(Cl)cc43)cc2)c(=O)c1=O` (stereo not shown) [Example 55, 6,8-dichloro-2-methyl-4-[4N-(2N-isopropylamino-3,4-dioxocyclobuten-1-yl)amino]phenyl-1,2,3,4-tetrahydroisoquinoline] it is 268 to 272 °C.
The figure for `CCNc1c(Nc2ccccc2C2CN(C)Cc3c(Cl)cc(Cl)cc32)c(=O)c1=O` (stereo not shown) [Example 49, 6,8-dichloro-2-methyl-4-[2N-(2-N-ethylamino-3,4-dioxocyclobuten-1-yl)amino]phenyl-1,2,3,4-tetrahydroisoquinoline] is 205 to 208 °C; for `CNc1c(Nc2cccc(C3CN(C)Cc4c(Cl)cc(Cl)cc43)c2)c(=O)c1=O` (stereo not shown) [Example 60] it is 295 to 298 °C.
In turn, `CN1Cc2c(Cl)cc(Cl)cc2[C@H](c2ccc(Nc3c(N(C)C)c(=O)c3=O)cc2)C1` [Example 20, 6,8-dichloro-2-methyl-4(S)-[4N-(2-dimethylamino-3,4-dioxocyclobuten-1-yl)amino]phenyl-1,2,3,4-tetrahydroisoquinoline] showed a melting point of 240 to 247 °C.
Regarding `CN(C)CCNc1c(Nc2ccccc2C2CN(C)Cc3c(Cl)cc(Cl)cc32)c(=O)c1=O` (stereo not shown) [Example 50, 6,8-dichloro-2-methyl-4-[2N-(2-N-dimethylaminoethylamino-3,4-dioxocyclobuten-1-yl)amino]phenyl-1,2,3,4-tetrahydroisoquinoline], the melting point fell in the range of 208 to 211 °C.
Turning to `CCCCCCNc1c(Nc2ccc(C3CN(C)Cc4c(Cl)cc(Cl)cc43)cc2)c(=O)c1=O` (stereo not shown) [Example 58], the melting point lay in the range of 234 to 238 °C.
Under `CCCCCCNc1c(Nc2ccccc2C2CN(C)Cc3c(Cl)cc(Cl)cc32)c(=O)c1=O` (stereo not shown) [Example 45, 6,8-dichloro-2-methyl-4-[2N-(2-N-(1-hexylamino)-3,4-dioxocyclobuten-1-yl)amino]phenyl-1,2,3,4-tetrahydroisoquinoline] stands 157 to 160 °C.
`CC(C)Nc1c(Nc2cccc(C3CN(C)Cc4c(Cl)cc(Cl)cc43)c2)c(=O)c1=O` (stereo not shown) [Example 64] displayed a melting point of 240 to 244 °C.
The molecule `CN1Cc2c(Cl)cc(Cl)cc2C(c2ccc(Nc3c(NCc4cccnc4)c(=O)c3=O)cc2)C1` (stereo not shown) [Example 59] yielded a melting point of 288 to 290 °C.
As to `CN1Cc2c(Cl)cc(Cl)cc2C(c2ccc(Nc3c(N(C)C4CCCCC4)c(=O)c3=O)cc2)C1` (stereo not shown) [Example 17, 6,8-dichloro-2-methyl-4-[4N-(2-N-cyclohexyl-N-methylamino-3,4-dioxocyclobuten-1-yl)amino]phenyl-1,2,3,4-tetrahydroisoquinoline], the melting point lay within 260 to 265 °C.
The figure for `CN(C)CCNc1c(Nc2ccc(C3CN(C)Cc4c(Cl)cc(Cl)cc43)cc2)c(=O)c1=O` (stereo not shown) [Example 57] is 262 to 266 °C; for `CN1Cc2c(Cl)cc(Cl)cc2C(c2ccc(Nc3c(NCc4ccco4)c(=O)c3=O)cc2)C1` (stereo not shown) [Example 56, 6,8-dichloro-2-methyl-4-[4N-(2N-(2-furylmethyl)amino-3,4-dioxocyclobuten-1-yl)amino]phenyl-1,2,3,4-tetrahydroisoquinoline] it is 264 to 268 °C; for `CNc1c(Nc2ccccc2C2CN(C)Cc3c(Cl)cc(Cl)cc32)c(=O)c1=O` (stereo not shown) [Example 44, 6,8-dichloro-2-methyl-4-[2N-(2-N-methylamino-3,4-dioxocyclobuten-1-yl)amino]phenyl-1,2,3,4-tetrahydroisoquinoline] it is 224 to 230 °C.
Under `CN1Cc2c(Cl)cc(Cl)cc2[C@H](c2ccc(Nc3c(NC4CC4)c(=O)c3=O)cc2)C1` [Example 35] stands 280 to 285 °C; under `CC(C)Nc1c(Nc2ccccc2C2CN(C)Cc3c(Cl)cc(Cl)cc32)c(=O)c1=O` (stereo not shown) [Example 46, 6,8-dichloro-2-methyl-4-[2N-(2-N-isopropylamino-3,4-dioxocyclobuten-1-yl)amino]phenyl-1,2,3,4-tetrahydroisoquinoline], 238 to 241 °C.
`CN1Cc2c(Cl)cc(Cl)cc2C(c2cccc(Nc3c(NC4CCCC4)c(=O)c3=O)c2)C1` (stereo not shown) [Example 63, 6,8-dichloro-2-methyl-4-[3N-(2-cyclopentylamino-3,4-dioxocyclobuten-1-yl)amino]phenyl-1,2,3,4-tetrahydroisoquinoline] gave a melting point of 248 to 252 °C.
The figure for `CN1Cc2c(Cl)cc(Cl)cc2C(c2ccccc2Nc2c(NC3CCCC3)c(=O)c2=O)C1` (stereo not shown) [Example 47, 6,8-dichloro-2-methyl-4-[2N-(2-N-cyclopentylamino-3,4-dioxocyclobuten-1-yl)amino]phenyl-1,2,3,4-tetrahydroisoquinoline] is 278 to 281 °C; for `CN1Cc2c(Cl)cc(Cl)cc2C(c2ccccc2Nc2c(NCc3cccnc3)c(=O)c2=O)C1` (stereo not shown) [Example 52, 6,8-dichloro-2-methyl-4-[2N-(2N-(3-picolylmethyl)amino-3,4-dioxocyclobuten-1-yl)amino]phenyl-1,2,3,4-tetrahydroisoquinoline] it is 244 to 246 °C; for `CN1Cc2c(Cl)cc(Cl)cc2C(c2ccccc2Nc2c(NCc3ccco3)c(=O)c2=O)C1` (stereo not shown) [Example 48, 6,8-dichloro-2-methyl-4-[2N-(2N-(2-furylmethyl)amino-3,4-dioxocyclobuten-1-yl)amino]phenyl-1,2,3,4-tetrahydroisoquinoline] it is 279 to 283 °C.
